Results as given in patent US20250154172A1, “PRMT5 INHIBITORS AND USES THEREOF” (Gilead Sciences, Inc., priority 2023, published 2025).

Test system: HCT116 MTAP-deleted cell lines
Assay: Cell viability assay for HCT116 isogenic pair (CellTitre-Glo, 7 days)
Format: cell-based
Settings: Homo sapiens, HCT-116, 168 h, 7 days of treatment, cell line not given
Experimental: Control compounds were analyzed in parallel each time for quality control.
In Brief, on Day −1, a serial dilution of stock compounds in DMSO was performed using BioMek liquid handlers and dispensed using Echo acoustic dispenser into 384 well plates. Both tool compounds and sample compounds were spotted in the same plate for a dose response of PRMT5 inhibitors. Compound plates were stored as frozen until the cells were ready for seeding.
On Day 0, 100 HCT WT or HCT116 MTAP-deleted cells were seeded in compound-containing 384 well plates (50 μl per well) in RPMI 1640 media supplemented with 10% heat inactivated fetal bovine serum, Glutamax and penicillin streptomycin using EL460 liquid dispenser 5 μl cassette (BioTek, part no. 7170011). After equilibrating the plate in room temperature, the cells were incubated for 7 days inside the sealed incubator set at 37° C. with 90% humidity and 5% CO2.
On Day 7, the viability of cells was measured using a CTG assay kit (CellTitre-Glo; Promega cat no. G7573). Shortly, 40 μl per well of luminescent cell viability assay reagent were dispensed using EL460 liquid dispenser 5 μl cassette. CTG luminescence signal was measured using an EnVision plate reader (PerkinElmer) in accordance with manufacturer's instruction. The CCso values for each compound after 7 days of treatment were calculated using 4 parameter non-linear logistical curve fit.
For the cell viability assay ie CC50 shown in nM in Table 3.

Row | SMILES | CC50 [nM]
1 | Cn1ncc2c(N)nc3cnc(C(=O)N4CCC[C@@H]5Oc6c(ccc(OC(F)(F)F)c6F)[C@@H]54)cc3c21 [Example Ca-7, (4-amino-1-methyl-1H-pyrazolo[4,3-c][1,7]naphthyridin-8-yl)((4aS,9bS)-6-fluoro-7-(trifluoromethoxy)-3,4,4a,9b-tetrahydrobenzofuro[3,2-b]pyridin-1(2H)-yl)methanone] | 13
2 | Cn1ncc2c(N)nc3ccc(C(=O)N4CCCC5OCc6cc(C(F)(F)F)ccc6C54)cc3c21 (stereo not drawn) [Example Ca-9, (4-amino-1-methyl-1H-pyrazolo[4,3-c]quinolin-8-yl)(8-(trifluoromethyl)-2,3,4,4a,6,10b-hexahydro-1H-isochromeno[4,3-b]pyridin-1-yl)methanone] | 56
3 | C[C@H]1CN(C(=O)c2cc3c(cn2)nc(N)c2cnn(C)c23)[C@H]2c3ccc(C(F)(F)F)cc3C[C@H]2O1 [Example Ca-13, (4-amino-1-methyl-1H-pyrazolo[4,3-c][1,7]naphthyridin-8-yl)((2S,4aS,9aR)-2-methyl-7-(trifluoromethyl)-2,3,9,9a-tetrahydroindeno[2,1-b][1,4]oxazin-4(4aH)-yl)methanone] | 17
4 | Cn1ncc2c(N)nc3cnc(C(=O)N4CC[C@H]5C[C@@H]4c4ccc(OC(F)F)cc45)cc3c21 [Example Ca-15, (4-amino-1-methyl-1H-pyrazolo[4,3-c][1,7]naphthyridin-8-yl)((1R,5S)-7-(difluoromethoxy)-1,3,4,5-tetrahydro-2H-1,5-methanobenzo[c]azepin-2-yl)methanone] | 10
5 | Cn1ncc2c(N)nc3cnc(C(=O)N4CC[C@@H]5C[C@H]4c4ccc(OC(F)F)cc45)cc3c21 [Example Ca-16, (4-amino-1-methyl-1H-pyrazolo[4,3-c][1,7]naphthyridin-8-yl)((1S,5R)-7-(difluoromethoxy)-1,3,4,5-tetrahydro-2H-1,5-methanobenzo[c]azepin-2-yl)methanone] | 91
6 | C[C@@H]1C[C@@H]2Oc3cc(C(F)(F)F)ccc3[C@@H]2N(C(=O)c2cc3c(cn2)nc(N)c2cnn(C)c23)C1 [Example Ca-17, (4-amino-1-methyl-1H-pyrazolo[4,3-c][1,7]naphthyridin-8-yl)((3R,4aS,9bS)-3-methyl-7-(trifluoromethyl)-3,4,4a,9b-tetrahydrobenzofuro[3,2-b]pyridin-1(2H)-yl)methanone] | 7
7 | Nc1nc2cnc(C(=O)N3CC[C@H]4C[C@@H]3c3ccc(C(F)(F)F)nc3O4)cc2c2c1COC2 [Example Ca-18, (4-amino-1,3-dihydrofuro[3,4-c][1,7]naphthyridin-8-yl)((2S,6R)-9-(trifluoromethyl)-3,4-dihydro-2H-2,6-methanopyrido[2,3-b][1,5]oxazocin-5(6H)-yl)methanone] | 34
8 | Cn1ncc2c(N)nc3cnc(C(=O)N4CCC[C@@H]5Oc6cc(C(F)(F)F)ccc6[C@@H]54)cc3c21 [Example Ca-19, (4-amino-1-methyl-1H-pyrazolo[4,3-c][1,7]naphthyridin-8-yl)((4aS,9bS)-7-(trifluoromethyl)-3,4,4a,9b-tetrahydrobenzofuro[3,2-b]pyridin-1(2H)-yl)methanone] | 6
9 | Cn1ncc2c(N)nc3ccc(C(=O)N4CCOC5CCc6ccccc6C54)cc3c21 (stereo not drawn) [Example Ca-20, 2,3,4a,5,6,10b-hexahydrobenzo[f][1,4]benzoxazin-1-yl-(4-amino-1-methyl-pyrazolo[4,3-c]quinolin-8-yl)methanone] | 46
10 | C[C@H]1CN(C(=O)c2cc3c(cc2F)nc(N)c2cnn(C)c23)[C@H]2c3ccc(C(F)(F)F)cc3C[C@H]2O1 [Example Ca-22, (4-amino-7-fluoro-1-methyl-1H-pyrazolo[4,3-c]quinolin-8-yl)((2S,4aS,9aR)-2-methyl-7-(trifluoromethyl)-2,3,9,9a-tetrahydroindeno[2,1-b][1,4]oxazin-4(4aH)-yl)methanone] | 11
11 | Cn1ncc2c(N)nc3cnc(C(=O)N4CCO[C@@H]5Cc6cc(Br)c(F)cc6[C@@H]54)cc3c21 [Example Ca-29, (4-amino-1-methyl-1H-pyrazolo[4,3-c][1,7]naphthyridin-8-yl)((4aS,9aR)-7-bromo-6-fluoro-2,3,9,9a-tetrahydroindeno[2,1-b][1,4]oxazin-4(4aH)-yl)methanone] | 5
12 | Cn1ncc2c(N)nc3cnc(C(=O)N4CCO[C@@H]5Cc6cc(Br)ccc6[C@@H]54)cc3c21 [Example Ca-33, (4-amino-1-methyl-1H-pyrazolo[4,3-c][1,7]naphthyridin-8-yl)((4aS,9aR)-7-bromo-2,3,9,9a-tetrahydroindeno[2,1-b][1,4]oxazin-4(4aH)-yl)methanone] | 9
13 | Cn1ncc2c(N)nc3cnc(C(=O)N4CCO[C@@H]5Cc6cc(C7CC7)ccc6[C@@H]54)cc3c21 [Example Ca-34, (4-amino-1-methyl-1H-pyrazolo[4,3-c][1,7]naphthyridin-8-yl)((4aS,9aR)-7-cyclopropyl-2,3,9,9a-tetrahydroindeno[2,1-b][1,4]oxazin-4(4aH)-yl)methanone] | 62
14 | Cn1ncc2c(N)nc3cnc(C(=O)N4CCO[C@@H]5Cc6cc(Cl)ccc6[C@@H]54)cc3c21 [Example Ca-35, (4-amino-1-methyl-1H-pyrazolo[4,3-c][1,7]naphthyridin-8-yl)((4aS,9aR)-7-chloro-2,3,9,9a-tetrahydroindeno[2,1-b][1,4]oxazin-4(4aH)-yl)methanone] | 36
15 | Cc1ccc2c(c1)C[C@H]1OCCN(C(=O)c3cc4c(cn3)nc(N)c3cnn(C)c34)[C@@H]21 [Example Ca-36, (4-amino-1-methyl-1H-pyrazolo[4,3-c][1,7]naphthyridin-8-yl)((4aS,9aR)-7-methyl-2,3,9,9a-tetrahydroindeno[2,1-b][1,4]oxazin-4(4aH)-yl)methanone] | 95
16 | Cn1ncc2c(N)nc3cnc(C(=O)N4CC[C@H]5C[C@@H]4c4ccc(Cl)c(F)c45)cc3c21 [Example Ca-42, (4-amino-1-methyl-1H-pyrazolo[4,3-c][1,7]naphthyridin-8-yl)((1R,5S)-7-chloro-6-fluoro-1,3,4,5-tetrahydro-2H-1,5-methanobenzo[c]azepin-2-yl)methanone] | 25
17 | Cn1ncc2c3cc(C(=O)N4CCC[C@@H]5Oc6cc(C(F)(F)F)ccc6[C@@H]54)ncc3nc(N)c21 [Example Ca-43, (4-amino-3-methyl-3H-pyrazolo[3,4-c][1,7]naphthyridin-8-yl)((4aS,9bS)-7-(trifluoromethyl)-3,4,4a,9b-tetrahydrobenzofuro[3,2-b]pyridin-1(2H)-yl)methanone] | 56
18 | Cn1ncc2c3cc(C(=O)N4CC[C@H]5C[C@@H]4c4ccc(C(F)(F)F)cc4O5)ncc3nc(N)c21 [Example Ca-44, (4-amino-3-methyl-3H-pyrazolo[3,4-c][1,7]naphthyridin-8-yl)((2S,6R)-9-(trifluoromethyl)-3,4-dihydro-2H-2,6-methanobenzo[b][1,5]oxazocin-5(6H)-yl)methanone] | 139
19 | Cn1ncc2c(N)nc3cnc(C(=O)N4CC[C@H]5C[C@@H]4c4ccc(C(F)(F)F)cc4O5)cc3c21 [Example Ca-45, (4-amino-1-methyl-1H-pyrazolo[4,3-c][1,7]naphthyridin-8-yl)((2S,6R)-9-(trifluoromethyl)-3,4-dihydro-2H-2,6-methanobenzo[b][1,5]oxazocin-5(6H)-yl)methanone] | 5
20 | Nc1nc2cnc(C(=O)N3CC[C@H]4C[C@@H]3c3ccc(OC(F)(F)F)cc3O4)cc2c2c1COC2 [Example Ca-46, (4-amino-1,3-dihydrofuro[3,4-c][1,7]naphthyridin-8-yl)((2S,6R)-9-(trifluoromethoxy)-3,4-dihydro-2H-2,6-methanobenzo[b][1,5]oxazocin-5(6H)-yl)methanone] | 25
21 | [2H]C1([2H])CC[C@@H]2Oc3cc(C(F)(F)F)ccc3[C@@H]2N1C(=O)c1cc2c3c(c(N)nc2cn1)COC3 [Example Ca-48, (4-amino-1,3-dihydrofuro[3,4-c][1,7]naphthyridin-8-yl)((4aS,9bS)-7-(trifluoromethyl)-3,4,4a,9b-tetrahydrobenzofuro[3,2-b]pyridin-1(2H)-yl-2,2-d2)methanone] | 12
22 | C[C@@H]1CN(C(=O)c2cc3c(cn2)nc(N)c2cnn(C)c23)[C@H]2c3ccc(C(F)(F)F)cc3C[C@H]2O1 [Example Ca-49, (4-amino-1-methyl-1H-pyrazolo[4,3-c][1,7]naphthyridin-8-yl)((2R,4aS,9aR)-2-methyl-7-(trifluoromethyl)-2,3,9,9a-tetrahydroindeno[2,1-b][1,4]oxazin-4(4aH)-yl)methanone] | 26
23 | C[C@@H]1CN(C(=O)c2cc3c(cn2)nc(N)c2cnn(C)c23)[C@H]2c3ccc(Br)cc3C[C@H]2O1 [Example Ca-50, (4-amino-1-methyl-1H-pyrazolo[4,3-c][1,7]naphthyridin-8-yl)((2R,4aS,9aR)-7-bromo-2-methyl-2,3,9,9a-tetrahydroindeno[2,1-b][1,4]oxazin-4(4aH)-yl)methanone] | 20
24 | Cn1ncc2c(N)nc3cnc(C(=O)N4CCO[C@@H]5Cc6cc(C(F)(F)F)cc(F)c6[C@@H]54)cc3c21 [Example Ca-51, (4-amino-1-methyl-1H-pyrazolo[4,3-c][1,7]naphthyridin-8-yl)((4aS,9aR)-5-fluoro-7-(trifluoromethyl)-2,3,9,9a-tetrahydroindeno[2,1-b][1,4]oxazin-4(4aH)-yl)methanone] | 195
